Values joined by “and” are separate entries in the source; they are usually repeats but may differ in a detail not shown here. Equal values may be shown once.
How the values were obtained:
[1] = system: arterial thrombosis in a mouse model; experiment: Arterial thrombosis mouse model (FeCl3 on femoral artery); type: in vivo; details: i.v.
Description: The solutions are diluted 3.3-fold in saline and 100 μl/25 g is injected. Thus, the above-mentioned doses of 100 and 300 mg/kg of compound correspond to final doses of 30 and 100 mg/kg.
During the experiments, a soluble salt of the drug is provided (potassium salt of compound C), diluted in saline. Of this formulation, 100 μl/25 g is injected i.v. in the tail vein (dose of 100 mg/kg).
Solutions are injected (100 μl/25 g body weight) i.v. in the tail vein over 2 min to obtain doses of each compound of 30 mg/kg and 100 mg/kg. Aspirin is given the same way at a dose of 200 mg/kg. Clopidogrel is administered by oral gavage at a dose of 20 mg/kg at 6-7 hours prior to the experiment. The animals assigned to each group are matched for body weight. Mice are typically 8-10 weeks old males and are in a 100% Swiss genetic background.
The flow in each image is expressed as a percentage of that at the contralateral side, and data are averaged for all 120 images to determine total flow. The same analysis is performed for 10 min intervals (which gives essentially the same information as the area under the curve). […] Flow before treatment is recorded as 100%, and that in occluded arteries as 0%. At the end of the experiment, blood is collected on 0.01M citrate by heart puncture for determination of blood cell counts. Plasma is prepared by centrifugation and stored at −20° C. for determination of drug levels.
Statistical analysis for differences between two groups is performed by non-parametric Student t-test. Occlusion times >30 min were considered equal to 30 min for statistical analysis. Significance is set at p<0.05.

[2] = biological target: T1, Human Recombinant (E. coli) PPARgamma (Homo sapiens, UniProt P37231); experiment: PPAR gamma binding assay ([3H]-rosiglitazone); details: [3H]-rosiglitazone 10 nM
T1 construct: host or cells: E. coli
T1 sequence (P37231 1-505): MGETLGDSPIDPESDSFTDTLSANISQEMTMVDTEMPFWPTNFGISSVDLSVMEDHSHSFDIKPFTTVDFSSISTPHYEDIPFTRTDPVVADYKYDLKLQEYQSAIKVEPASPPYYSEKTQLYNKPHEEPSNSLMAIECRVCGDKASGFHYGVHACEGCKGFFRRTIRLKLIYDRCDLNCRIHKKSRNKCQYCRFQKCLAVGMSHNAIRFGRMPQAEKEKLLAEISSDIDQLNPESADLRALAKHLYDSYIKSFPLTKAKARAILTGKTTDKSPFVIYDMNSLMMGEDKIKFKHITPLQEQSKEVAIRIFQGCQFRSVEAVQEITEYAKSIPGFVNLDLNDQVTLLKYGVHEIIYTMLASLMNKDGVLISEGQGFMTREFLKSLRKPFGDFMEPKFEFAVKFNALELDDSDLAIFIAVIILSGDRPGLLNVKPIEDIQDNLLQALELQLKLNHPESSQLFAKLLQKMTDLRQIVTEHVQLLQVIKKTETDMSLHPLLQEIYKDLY
Description: Incubation: 120 min. at 4° C.
The results are expressed as a percent of control specific binding ((measured specific binding/control specific binding)×100) obtained in the presence of the test compounds. The IC50 values (concentration causing a half-maximal inhibition of control specific binding) and Hill coefficients (nil) were determined by non-linear regression analysis of the competition curves generated with mean replicate values using Hill equation curve fitting (Y=D+[(A−D)/(1+(C/C50)nH)], where Y=specific binding, D=minimum specific binding, A=maximum specific binding, C=compound concentration, C50=IC50, and nH=slope factor). This analysis was performed using a software developed at Cerep (Hill software) and validated by comparison with data generated by the commercial software SigmaPlot® 4.0 for Windows® (© 1997 by SPSS Inc.). The inhibition constants (Ki) were calculated using the Cheng Prusoff equation (Ki=IC50/(1+(L/KD)), where L=concentration of radioligand in the assay, and KD=affinity of the radioligand for the receptor).

[3] = system: Human platelet rich plasma; experiment: TP receptor platelet aggregation, human (U-46619-induced); type: cell-based; details: 3 μM U-46619-induced
Description: Thrombosis Research 33:277-288.
TP Receptor Platelet Aggregation—Human:
Human (60±10 kg) platelet rich plasma
Assay. Inhibition of 3 μM U-46619-induced platelet aggregation Incubation Time, Temp: 5 minutes at 37° C. Incubation Buffer Trisodium Citrate (0.13 M)-treated fresh platelet rich plasma
Time of Assessment: 5 minutes
Quantification Method Optical Density Change

KKA^y mice = experiment: KKAy mice on high fat diet, 14-day oral gavage BID; type: in vivo, mouse
Description: 52 male KKA^y mice are obtained commercially (e.g., from Clea Japan) at an age of 6 weeks and put on a high fat diet upon arrival. Individual mice were housed in IVC Type II cages during both the acclimatization and the experimental phase. Both food (high fat diet) and water are supplied ad libitum.
1 animal per cage. […] Lights on at 06:00 a.m. Temperature: 21-25° C. Relative humidity target range: 55-60%.
Mice were randomized into treatment groups according to their 4-h fasting blood glucose.
4 hours after the last administration, non-fasting conditions.
Gamma irradiated high fat diet is commercially available (e.g., Research Diets, Inc. New Brunswick, N.J. (Product # D12266BI)).
Blood is collected into heparin containing glass capillaries which are subsequently centrifuged in a “Haematokrit 24” centrifuge (Hettich) at 15′200×g for 10 minutes at room temperature to obtain the hematocrit value.
The following serum parameters are determined on a COBAS INTEGRA 800 auto analyzer (Roche Diagnostics, Switzerland) using the reagents and protocols provided by the supplier.
All measurements are made on Day 14 of administration, except for the food intake and body weight measurements that are made on Day 12.

[4] = 53 mg/kg BID oral gavage, Day 12, mean ± S.E.M.
[5] = 53 mg/kg BID oral gavage, Day 14, mean ± S.E.M.
[6] = 14-day BID, enoic acid 53 mg/kg, rosiglitazone 5 mg/kg, Compounds 3 and 13 dose not stated

Compound: O=C(O)CC/C=C\C[C@@H]1CO[C@H](c2ccccc2Cl)O[C@@H]1c1ccccc1O [Compound C, (Z)-6-((2S,4S,5R)-2-(2-chlorophenyl)-4-(2-hydroxyphenyl)-1,3-dioxan-5-yl)hex-4-enoic acid]
- Occlusion time ([1]; 30 mg/kg in vehicle): slightly prolongs the occlusion time as compared to aspirin (p=0.024), but has no effect as compared to vehicle
- Total blood flow ([1]; 30 mg/kg in vehicle): no effect on total blood flow
- Occlusion time ([1]; 100 mg/kg in vehicle): prolongs the occlusion time versus aspirin (p=0.0002), but not versus vehicle only (p=0.095)
- Total blood flow ([1]; 100 mg/kg in vehicle): slightly improved total blood flow as compared to aspirin (p=0.055), but not as compared to vehicle (p=0.45)
- Blood flow in the time window 0-10 min ([1]; 100 mg/kg in vehicle, 0-10 min): significantly higher flow as compared to aspirin (p=0.0002) but not as compared to vehicle only (p=0.11)
- Ki ([2]; Cheng Prusoff, read-out: PPARγ binding Ki): 1.8 µM and 4.3 µM
- IC50 ([2]; read-out: PPARγ binding IC50): 4.9 µM and 12 µM
- IC50 [3]: 0.31 µM
- Body Weight (KKA^y mice; [4]): 45.4 ± 1.0 g
- Food Intake (KKA^y mice; [4]): 5.0 ± 0.6 g/day
- ALP (KKA^y mice; [5]): 21.5 ± 1.6 dU/L
- ALT (KKA^y mice; [5]): 5.1 ± 0.6 dU/L
- AST (KKA^y mice; [5]): 7.7 ± 1.0 dU/L
- FFA (KKA^y mice; [5]): 1.7 ± 0.3 mM
- Fructosamine (KKA^y mice; [5]): 0.41 ± 0.03 mM
- HDL (KKA^y mice; [5]): 3.1 ± 0.2 mM
- HbA1C (KKA^y mice; [5]): 7.8 ± 0.3 %
- Heart weight (KKA^y mice; [5]): 208.5 ± 7.6 mg
- Hematocrit (KKA^y mice; [5]): 40.1 ± 1.6%
- Insulin (KKA^y mice; [5]): 39.1 ± 8.8 µg/L
- Serum Glucose (KKA^y mice; [5]): 31.9 ± 3.6 mM
- TG (KKA^y mice; [5]): 2.0 ± 0.3 mM
- Total Cholesterol (KKA^y mice; [5]): 3.6 ± 0.3 mM
- Body weight (in words) (KKA^y mice; [6]): do not alter body weight
- Circulating glucose levels (in words) (KKA^y mice; [6]): decreased
- FFA (in words) (KKA^y mice; [6]): decreases the FFA
- HbA1c levels (in words) (KKA^y mice; [6]): decreased
- Heart weight (in words) (KKA^y mice; [6]): no effect on heart weight

Source: patent US20120142766A1, “SUBSTITUTED 1,3-DIOXANES AND THEIR USES” (EVOLVA SA, priority 2007, published 2012)
